# Source: the supplement of paper PMC10307832
# Tests used:
# Experiment in all cases: relative viability (nuclei count vs DMSO), 5 days (fraction); higher = more cells survive
# [1] = tested on: LXF-289
# Method in brief: (§1)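 Medians of duplicate plates are given as relative viability. That measure is the nuclei count in treated wells divided by the count in vehicle wells. Counts were taken on 4× images of lung cancer cell lines in 1536-well plates, 5 days after pin-tool dosing the day after seeding with one drug alone or a fixed anchor-drug dose plus five library-drug doses (not always all listed) in √10 steps.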
# [2] = tested on: NCI-H2170
# Method in brief: as §1
# [3] = tested on: NCI-H441
# Method in brief: as §1
# [4] = tested on: NCI-H1792
# Method in brief: as §1
# [5] = tested on: RERF-LC-KJ
# Method in brief: as §1
# [6] = tested on: NCI-H1755
# Method in brief: as §1
# [7] = tested on: NCI-H1355
# Method in brief: as §1
# [8] = tested on: NCI-H522
# Method in brief: as §1
# [9] = tested on: LCLC-103H
# Method in brief: as §1
# [10] = tested on: NCI-H322M
# Method in brief: as §1
# [11] = tested on: NCI-H1915
# Method in brief: as §1
# [12] = tested on: SK-MES-1
# Method in brief: as §1
smiles,measurement,setting,value
COc1cc(N2CCC(C(N)=O)CC2)ccc1Nc1nc(N)c(Cl)c(Nc2ccccc2S(=O)(=O)C(C)C)n1 [HG-5-88-01] + CC(=O)Nc1cccc(-n2c(=O)n(C3CC3)c(=O)c3c(Nc4ccc(I)cc4F)n(C)c(=O)c(C)c32)c1 [Trametinib] (partner 0.02 µM),relative viability,[1]; first compound 0.04 µM,0.672
same,relative viability,[1]; first compound 0.1265 µM,0.692
same,relative viability,[1]; first compound 0.4 µM,0.511
same,relative viability,[1]; first compound 1.265 µM,0.677
same,relative viability,[1]; first compound 4 µM,0.672
same,relative viability,[2]; first compound 0.04 µM,0.961
same,relative viability,[2]; first compound 0.1265 µM,0.964
same,relative viability,[2]; first compound 0.4 µM,0.894
same,relative viability,[2]; first compound 1.265 µM,0.672
same,relative viability,[2]; first compound 4 µM,1.03
same,relative viability,[3]; first compound 0.04 µM,0.543
same,relative viability,[3]; first compound 0.1265 µM,0.428
same,relative viability,[3]; first compound 0.4 µM,0.455
same,relative viability,[3]; first compound 1.265 µM,0.345
same,relative viability,[3]; first compound 4 µM,0.336
same,relative viability,[4]; first compound 0.04 µM,0.444
same,relative viability,[4]; first compound 0.1265 µM,0.535
same,relative viability,[4]; first compound 0.4 µM,0.401
same,relative viability,[4]; first compound 1.265 µM,0.432
same,relative viability,[4]; first compound 4 µM,0.576
same,relative viability,[5]; first compound 0.04 µM,0.79
same,relative viability,[5]; first compound 0.1265 µM,0.902
same,relative viability,[5]; first compound 0.4 µM,0.744
same,relative viability,[5]; first compound 1.265 µM,0.713
same,relative viability,[5]; first compound 4 µM,0.714
same,relative viability,[6]; first compound 0.04 µM,0.765
same,relative viability,[6]; first compound 0.1265 µM,0.72
same,relative viability,[6]; first compound 0.4 µM,0.773
same,relative viability,[6]; first compound 1.265 µM,0.78
same,relative viability,[6]; first compound 4 µM,0.792
same,relative viability,[7]; first compound 0.04 µM,0.439
same,relative viability,[7]; first compound 0.1265 µM,0.351
same,relative viability,[7]; first compound 0.4 µM,0.407
same,relative viability,[7]; first compound 1.265 µM,0.298
same,relative viability,[7]; first compound 4 µM,0.323
same,relative viability,[8]; first compound 0.04 µM,0.683
same,relative viability,[8]; first compound 0.1265 µM,0.784
same,relative viability,[8]; first compound 0.4 µM,0.695
same,relative viability,[8]; first compound 1.265 µM,0.705
same,relative viability,[8]; first compound 4 µM,0.636
same,relative viability,[9]; first compound 0.04 µM,0.693
same,relative viability,[9]; first compound 0.1265 µM,0.649
same,relative viability,[9]; first compound 0.4 µM,0.52
same,relative viability,[9]; first compound 1.265 µM,0.69
same,relative viability,[9]; first compound 4 µM,0.732
same,relative viability,[10]; first compound 0.04 µM,0.486
same,relative viability,[10]; first compound 0.1265 µM,0.459
same,relative viability,[10]; first compound 0.4 µM,0.524
same,relative viability,[10]; first compound 1.265 µM,0.36
same,relative viability,[10]; first compound 4 µM,0.451
same,relative viability,[11]; first compound 0.04 µM,0.327
same,relative viability,[11]; first compound 0.1265 µM,0.338
same,relative viability,[11]; first compound 0.4 µM,0.353
same,relative viability,[11]; first compound 1.265 µM,0.313
same,relative viability,[11]; first compound 4 µM,0.317
same,relative viability,[12]; first compound 0.04 µM,0.535
same,relative viability,[12]; first compound 0.1265 µM,0.54
